Results from patent publication US10166216B2 (Rigel Pharmaceuticals, Inc., priority 2006, dated 2019).

Target: Axl (Homo sapiens (Human), UniProt P30530)
Experiment: Phospho-Akt in-cell Western assay (Axl-antibody cross-linking stimulation)
Type: cell-based
Settings: inhibition of Axl activity, Hela cells, phospho-Akt readout; Table 1, formula (Ia1)
In short: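 HeLa cells on poly-L-lysine, starved 24 hrs with Axl/Fc, pre-treated with compound 1 hr at 37° C., then stimulated 5 min with Axl primary/secondary antibody cluster. Fixed cells probed for phospho-Akt by chemiluminescent in-cell Western; signal normalized to crystal violet cell number.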

Axl, sequence (P30530 26-894): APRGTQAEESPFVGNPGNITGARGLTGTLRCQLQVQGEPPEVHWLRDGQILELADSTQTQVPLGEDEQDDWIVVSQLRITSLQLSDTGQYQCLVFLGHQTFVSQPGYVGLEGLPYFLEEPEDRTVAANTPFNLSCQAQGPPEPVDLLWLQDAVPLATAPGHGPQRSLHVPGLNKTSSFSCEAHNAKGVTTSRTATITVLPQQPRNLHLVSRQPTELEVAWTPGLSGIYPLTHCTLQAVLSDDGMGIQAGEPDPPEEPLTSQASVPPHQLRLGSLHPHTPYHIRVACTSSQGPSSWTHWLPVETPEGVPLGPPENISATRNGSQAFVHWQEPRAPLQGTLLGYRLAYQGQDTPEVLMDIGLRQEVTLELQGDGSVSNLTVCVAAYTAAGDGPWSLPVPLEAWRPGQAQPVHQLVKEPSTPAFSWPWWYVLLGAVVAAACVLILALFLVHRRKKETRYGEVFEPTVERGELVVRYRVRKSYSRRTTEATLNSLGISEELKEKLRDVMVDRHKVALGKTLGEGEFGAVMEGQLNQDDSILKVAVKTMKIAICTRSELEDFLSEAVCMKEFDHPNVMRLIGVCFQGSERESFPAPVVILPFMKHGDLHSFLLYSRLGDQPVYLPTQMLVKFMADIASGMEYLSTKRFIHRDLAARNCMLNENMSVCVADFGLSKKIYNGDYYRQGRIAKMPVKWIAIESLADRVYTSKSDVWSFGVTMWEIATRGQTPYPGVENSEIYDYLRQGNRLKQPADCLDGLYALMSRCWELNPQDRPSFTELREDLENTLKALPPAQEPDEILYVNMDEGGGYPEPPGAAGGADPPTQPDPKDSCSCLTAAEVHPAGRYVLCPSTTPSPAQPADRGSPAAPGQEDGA

IC50 [nM]	SMILES
1000 to 10000	Nc1nc(Nc2ccc(OCCN3CCCC3)cc2)nn1-c1cnccn1 [Compound 13, 1-(pyrazin-2-yl)-N^3-(4-(2-(pyrrolidin-1-yl)ethoxy)phenyl)-1H-1,2,4-triazole-3,5-diamine]
> 20000	Cn1c(-n2nc(Nc3ccc(OCCN4CCCC4)cc3)nc2N)nc2ccccc21 [Compound 14, 1-(1-methyl-1H-benzo[d]imidazol-2-yl)-N^3-(4-(2-(pyrrolidin-1-yl)ethoxy)phenyl)-1H-1,2,4-triazole-3,5-diamine]
< 1000	Nc1nc(Nc2ccc(OCCN3CCCC3)cc2)nn1-c1cnc2ccccc2n1 [Compound 9, N^3-(4-(2-(pyrrolidin-1-yl)ethoxy)phenyl)-1-(quinoxalin-2-yl)-1H-1,2,4-triazole-3,5-diamine]
< 1000	Nc1nc(Nc2ccc(OCCN3CCCC3)cc2)nn1-c1nncc2ccccc12 [Compound 25, 1-(phthalazin-1-yl)-N^3-(4-(2-(pyrrolidin-1-yl)ethoxy)phenyl)-1H-1,2,4-triazole-3,5-diamine]
< 1000	Nc1nc(Nc2ccc(OCCN3CCCC3)cc2)nn1-c1nccc2[nH]c(=O)ccc12 [Compound 78, 5-(5-amino-3-(4-(2-(pyrrolidin-1-yl)ethoxy)phenylamino)-1H-1,2,4-triazol-1-yl)-1,6-naphthyridin-2(1H)-one]
> 20000	CC1CCCN1CCOc1ccc(Nc2nc(N)n(-c3nc4ccccc4s3)n2)cc1 (stereo not drawn) [Compound 22, 1-(benzo[d]thiazol-2-yl)-N^3-(4-(2-(2-methylpyrrolidin-1-yl)ethoxy)phenyl)-1H-1,2,4-triazole-3,5-diamine]

Same assay, conditions: inhibition of Axl activity, Hela cells, phospho-Akt readout; Table 5, formula (Ia3)

IC50 [nM]	SMILES
< 1000	COc1cc2ncnc(-n3nc(Nc4ccc(N5CCOCC5)c(Cl)c4)nc3N)c2cc1OC [Compound 159, N^3-(3-chloro-4-morpholinophenyl)-1-(6,7-dimethoxyquinazolin-4-yl)-1H-1,2,4-triazole-3,5-diamine]
< 1000	COc1cc2ccnc(-n3nc(Nc4ccc(C5CCN(C)CC5)cc4)nc3N)c2cc1OC [Compound 174, 1-(6,7-dimethoxyisoquinolin-1-yl)-N^3-(4-(1-methylpiperidin-4-yl)phenyl)-1H-1,2,4-triazole-3,5-diamine]
< 1000	COc1cc2ncnc(-n3nc(Nc4ccc(C5CCN(C)CC5)cc4)nc3N)c2cc1OC [Compound 168, 1-(6,7-dimethoxyquinazolin-4-yl)-N^3-(4-(1-methylpiperidin-4-yl)phenyl)-1H-1,2,4-triazole-3,5-diamine]
< 1000	Cc1cc(Nc2nc(N)n(-c3nc4ccccc4c4ccccc34)n2)ccc1N1CCC(N2CCCC2)CC1 [Compound 214, 1-(phenanthridin-6-yl)-N^3-(3-methyl-4-(4-pyrrolidin-1-ylpiperidin-1-yl)phenyl)-1H-1,2,4-triazole-3,5-diamine]
> 20000	Nc1nc(Nc2ccc(-c3cnco3)cc2)nn1-c1nccc2ccccc12 [Compound 166, 1-(isoquinolin-1-yl)-N^3-(4-(oxazol-5-yl)phenyl)-1H-1,2,4-triazole-3,5-diamine]
< 1000	COc1cc2ncnc(-n3nc(Nc4ccc(N5CCOCC5)c(F)c4)nc3N)c2cc1OC [Compound 162, 1-(6,7-dimethoxyquinazolin-4-yl)-N^3-(3-fluoro-4-morpholinophenyl)-1H-1,2,4-triazole-3,5-diamine]
< 1000	CN1CCN(Cc2ccc(Nc3nc(N)n(-c4nccc5ccccc45)n3)cc2)CC1 [Compound 163, 1-(isoquinolin-1-yl)-N^3-(4-((4-methylpiperazin-1-yl)methyl)phenyl)-1H-1,2,4-triazole-3,5-diamine]

Same assay, conditions: inhibition of Axl activity, phospho-Akt in-cell Western assay

SMILES	IC50 [nM]
CN1CCN(c2ccc(Nc3nc(N)n(-c4nccc5ccccc45)n3)cc2F)CC1 [Compound 90, N^3-(3-fluoro-4-(4-methylpiperazin-1-yl)phenyl)-1-(isoquinolin-1-yl)-1H-1,2,4-triazole-3,5-diamine]	< 1000
COc1cc2ncnc(-n3nc(Nc4ccc(N5CCN(C6CCCCC6)CC5)c(Cl)c4)nc3N)c2cc1OC [Compound 114, N^3-(3-chloro-4-(4-cyclohexylpiperazin-1-yl)phenyl)-1-(6,7-dimethoxyquinazolin-4-yl)-1H-1,2,4-triazole-3,5-diamine]	< 1000
COc1cc2c(-n3nc(Nc4ccc(N5CCN(C6CCCCCC6)CC5)cc4)nc3N)ncnc2cc1O [Compound 109, 4-(5-amino-3-(4-(4-cycloheptylpiperazin-1-yl)phenylamino)-1H-1,2,4-triazol-1-yl)-6-methoxyquinazolin-7-ol]	< 1000
Nc1nc(Nc2ccc(N3CCN(C4CCCCC4)CC3)cc2)nn1-c1nccc2ccccc12 [Compound 81, N^3-(4-(4-cyclohexylpiperazin-1-yl)phenyl)-1-(isoquinolin-1-yl)-1H-1,2,4-triazole-3,5-diamine]	< 1000

Other lines, results leading:

IC50 [nM]	SMILES
> 20000	COc1cc2c(C)nnc(-n3nc(Nc4ccc(N5CCN([C@H]6C[C@@H]7CC[C@H]6C7)CC5)c(F)c4)nc3N)c2cc1OC [Compound 228, 1-(6,7-dimethoxy-1-methylphthalazin-4-yl)-N^3-(3-fluoro-4-(4-((1S,2S,4R)-bicyclo[2.2.1]heptan-2-yl)piperazin-1-yl)phenyl)-1H-1,2,4-triazole-3,5-diamine]
< 1000	Cc1nnc(-n2nc(Nc3ccc(N4CCN([C@H]5CC6CCC5C6)CC4)c(Cl)c3)nc2N)c2sccc12 (stereo partly drawn) [Compound 231, 1-(4-methylthieno[3,2-d]pyridazin-7-yl)-N^3-(3-chloro-4-(4-((2)S-bicyclo[2.2.1]heptan-2-yl)piperazin-1-yl)phenyl)-1H-1,2,4-triazole-3,5-diamine]
1000 to 10000	Nc1nc(Nc2ccc(N3CCN(C4CC5CCC4C5)CC3)cc2)nn1-c1nc(C(F)(F)F)nc2ccccc12 (stereo not drawn) [Compound 136, N^3-(4-(4-(bicyclo[2.2.1]heptan-2-yl)piperazin-1-yl)phenyl)-1-(2-(trifluoromethyl)quinazolin-4-yl)-1H-1,2,4-triazole-3,5-diamine]
1000 to 10000	Cc1csc2c(-n3nc(Nc4ccc(N5CCN([C@H]6CC7CCC6C7)CC5)cc4)nc3N)nc(-c3cccc(NS(C)(=O)=O)c3)nc12 (stereo partly drawn) [Compound 238, 1-(7-methyl-2-(3-(methylsulfonyl)aminophenyl)thieno[3,2-d]pyrimidin-4-yl)-N^3-(4-(4-((2S)-bicyclo[2.2.1]heptan-2-yl)piperazin-1-yl)phenyl)-1H-1,2,4-triazole-3,5-diamine]
< 1000	Cc1cc(N2CCN(C3CC4CCC3C4)CC2)ccc1Nc1nc(N)n(-c2ncnc3c(C)csc23)n1 (stereo not drawn) [Compound 202, 1-(7-methylthieno[3,2-d]pyrimidin-4-yl)-N^3-(2-methyl-4-(4-(bicyclo[2.2.1]heptan-2-yl)-piperazin-1-yl)phenyl)-1H-1,2,4-triazole-3,5-diamine]
< 1000	Cc1cc(Nc2nc(N)n(-c3nc(Cl)nc4c(C)csc34)n2)ccc1N1CCN(C2CC3CCC2C3)CC1 (stereo not drawn) [Compound 225, 1-(7-methyl-2-chlorothieno[3,2-d]pyrimidin-4-yl)-N^3-(3-methyl-4-(4-(bicyclo[2.2.1]heptan-2-yl)piperazin-1-yl)phenyl)-1H-1,2,4-triazole-3,5-diamine]
< 1000	Cc1nnc(-n2nc(Nc3ccc(N4CCN(C5CC6CCC5C6)CC4)c(F)c3)nc2N)c2sccc12 (stereo not drawn) [Compound 203, 1-(4-methylthieno[3,2-d]pyridazin-7-yl)-N^3-(3-fluoro-4-(4-(bicyclo[2.2.1]heptan-2-yl)-piperazin-1-yl)phenyl)-1H-1,2,4-triazole-3,5-diamine]
